{
  "source": "paper PMC12714254",
  "about": "“Exploiting peptide chirality and transport to dissect the complex mechanism of action of host peptides on bacteria” (PLOS Genetics, 2025)",
  "key": {"S. meliloti cell cycle": {"tested_on": "S. meliloti cell cycle", "parameters": "method as in PMID 24501120", "conditions": "ref [12]; cited from earlier work"}, "[1]": {"tested_on": "in vitro coupled transcription-translation (GFP reporter)", "assay": "In vitro translation assay, GFP fluorescence", "format": "biochemical", "conditions": "same molarity, S3C Fig"}},
  "data": [
    {"substance": "Polymyxin B", "values": [
      {"measurement": "cell cycle changes", "setting": "S. meliloti cell cycle", "result": "cannot elicit cell cycle changes"}
    ]},
    {"substance": "LL37: cationic peptide LL37 (LLGDFFRKSKEKIGKEFKRIVQRIKDFLRNLVPRTES; Antibacterial peptide LL-37; UniProt P49913 134-170, looked up)", "values": [
      {"measurement": "translation inhibition by LL37 vs NCR247", "setting": "[1]", "result": "very diminished phenotype as compared to the L-NCR247 and was lesser than the inhibition by D-NCR247"},
      {"measurement": "cell cycle changes", "setting": "S. meliloti cell cycle", "result": "cannot elicit cell cycle changes"}
    ]}
  ]
}
